Laboratory results from patent publication US20050165064A1, “Novel thiol derivative, process for producing the same and use thereof” (priority 2003, published 2005).
Counter-ions that a name gives are not always drawn. One block for each compound: values may come before it.

Molecular target: Recombinant Human MMP-13 (Homo sapiens, UniProt P45452)
Assay: MMP-13 inhibitory activity, fluorescent synthetic substrate method
Type: biochemical
Conditions: 8 nM APMA-activated enzyme, 10 μM substrate, 37° C., 1 hour
Experimental: The MMP-13 inhibitory activity was measured by a method using a fluorescent synthetic substrate. To a buffer solution for measurement (100 mM Tris-HCl, pH 7.4, 100 mM NaCl, 10 mM CaCl2) containing Recombinant Human MMP-13 (manufactured by Takeda Pharmaceuticals, Inc.) activated by APMA (1 mM) in a concentration of 8 nM, the compound dissolved in DMSO was added in a predetermined concentration. Subsequently, a fluorescent synthetic substrate (7-methoxycoumarin-4-yl)acetyl-Pro-Leu-Gly-Leu-(3-[2,4-dinitrophenyl]-L-2,3-diaminopropionyl)-Ala-Arg-NH2 was added thereto in a concentration of 10 μM to initiate the reaction. After incubation at 37° C. for 1 hour, a 500 mM acetate buffer (pH 3.0) was added to stop the reaction. The increase in the fluorescence intensity due to substrate decomposition was measured employing a CORONA MTP-32 plate reader under the condition of Ex/Em=340/400. The rate of inhibition of the enzymatic inhibitory activity was determined from the following equation: Rate of Inhibition (%)=100−(X−C)/(T−C)×100
T: Fluorescence intensity of the control with addition of enzyme and without addition of the compound
C: Fluorescence intensity of the control without addition of enzyme and without addition of the compound
X: Fluorescence intensity with addition of enzyme and with addition of the compound

- inhibition at 0.0015 µM (compound 1.5 nM, read-out: rate of inhibition for MMP-13 activity): 50%
SMILES: CCc1ccc(Oc2ccc(CN3C[C@H](S)CC3=O)cn2)cc1 [Example 12, (4R)-1-{[6-(4-ethylphenoxy)pyridin-3-yl]methyl}-4-mercaptopyrrolidin-2-one]

- inhibition at 0.003 µM (compound 3 nM, read-out: rate of inhibition for MMP-13 activity): 63%
SMILES: O=C1C[C@@H](S)CN1Cc1ccc(Oc2ccc(F)cc2)nc1 [Example 2, (4R)-1-{[6-(4-fluorophenoxy)pyridin-3-yl]methyl}-4-mercaptopyrrolidin-2-one hydrochloride]

SMILES: CS(=O)(=O)Nc1ccc(Oc2ccc(CN3C[C@H](S)CC3=O)cn2)cc1 [Example 15]
- rate of inhibition for MMP-13 activity (compound 1.5 nM): 67%
